Experimental findings from ChEMBL document CHEMBL1153352 (Bioorg Med Chem Lett, 2009) are described below.

Series [1] in a line: Solubility in water at pH 7.4. In kind it is physicochemical.
Series [2] has as its target Hepatocyte growth factor receptor (Homo sapiens, UniProt P08581). Description: Inhibition of GST-tagged human c-Met expressed in SF9 cells.

In brackets after ≈: the same amount, converted by molar mass.

Sequence of Hepatocyte growth factor receptor (P08581 whole entry): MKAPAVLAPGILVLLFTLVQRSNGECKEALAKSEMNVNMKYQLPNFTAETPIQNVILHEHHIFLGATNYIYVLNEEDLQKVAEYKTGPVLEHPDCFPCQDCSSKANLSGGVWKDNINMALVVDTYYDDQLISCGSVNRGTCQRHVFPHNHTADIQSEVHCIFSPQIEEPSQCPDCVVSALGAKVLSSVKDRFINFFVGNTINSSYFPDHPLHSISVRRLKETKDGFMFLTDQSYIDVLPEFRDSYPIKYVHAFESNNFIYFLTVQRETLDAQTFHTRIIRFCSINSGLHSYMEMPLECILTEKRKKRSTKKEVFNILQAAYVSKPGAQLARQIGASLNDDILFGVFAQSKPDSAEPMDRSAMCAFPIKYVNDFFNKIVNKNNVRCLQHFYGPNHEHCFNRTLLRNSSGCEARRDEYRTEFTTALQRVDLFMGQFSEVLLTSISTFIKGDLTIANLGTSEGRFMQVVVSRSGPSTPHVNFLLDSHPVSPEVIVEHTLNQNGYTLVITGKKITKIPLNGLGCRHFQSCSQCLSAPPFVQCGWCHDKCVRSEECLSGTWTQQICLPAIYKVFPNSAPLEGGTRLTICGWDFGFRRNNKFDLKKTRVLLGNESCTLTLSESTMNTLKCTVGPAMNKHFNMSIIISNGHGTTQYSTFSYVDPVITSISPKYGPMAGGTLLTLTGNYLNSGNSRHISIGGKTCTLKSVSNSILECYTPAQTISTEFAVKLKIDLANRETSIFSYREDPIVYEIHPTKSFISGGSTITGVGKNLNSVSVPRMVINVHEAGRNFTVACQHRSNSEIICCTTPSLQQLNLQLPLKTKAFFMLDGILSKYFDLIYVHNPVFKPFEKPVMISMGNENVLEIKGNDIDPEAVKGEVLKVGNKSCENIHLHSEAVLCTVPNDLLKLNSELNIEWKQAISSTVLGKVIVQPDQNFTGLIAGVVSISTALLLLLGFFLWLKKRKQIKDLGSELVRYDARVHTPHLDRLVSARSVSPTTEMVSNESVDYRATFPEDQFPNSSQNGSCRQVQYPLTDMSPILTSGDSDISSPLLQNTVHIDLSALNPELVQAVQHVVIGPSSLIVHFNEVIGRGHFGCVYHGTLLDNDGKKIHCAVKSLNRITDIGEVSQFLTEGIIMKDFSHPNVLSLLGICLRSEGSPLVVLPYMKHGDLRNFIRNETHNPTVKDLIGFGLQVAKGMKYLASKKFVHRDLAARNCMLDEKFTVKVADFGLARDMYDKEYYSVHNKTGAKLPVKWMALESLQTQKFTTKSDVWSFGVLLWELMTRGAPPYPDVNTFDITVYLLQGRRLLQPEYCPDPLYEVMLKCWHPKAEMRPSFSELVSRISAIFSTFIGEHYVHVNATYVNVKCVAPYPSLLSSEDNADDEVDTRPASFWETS

As usually defined, the solubility is the dissolved amount per volume that the medium holds. Low readings indicate a poorly soluble substance, high ones a readily soluble substance. In turn, `N#Cc1ccc2[nH]c(-c3ccncc3)c(-c3ccc(F)cc3)c2n1` came in with a solubility in series [1] of 1 µg/mL (≈ 3.18 µM). `N#Cc1ccc2[nH]c(-c3ccncc3)c(-c3ccncc3)c2n1`: the IC50 result in series [2] is listed as “Not Active”.

`N#Cc1ccc2[nH]c(-c3ccncc3)c(-c3cnc(N)nc3)c2n1`: in series [2], the IC50 result is given as “Not Active”. Regarding `CS(=O)(=O)c1ccc(-c2c(-c3ccncc3)[nH]c3ccc(C#N)nc23)cc1`, in series [2], the IC50 entry is recorded as “Not Active”. Turning to `N#Cc1ccc2[nH]c(-c3ccccc3)c(-c3ccc(F)cc3)c2n1`, the IC50 result in series [2] was “Not Active”.
